Experimental data published in US20200253996A1, “TCTP INHIBITING AGENTS FOR THE TREATMENT OF PROLIFERATIVE DISEASES, INFECTIOUS DISEASES, ALLERGIES, INFLAMMATIONS AND/OR ASTHMA” (UNIVERSITE PARIS-SUD, priority 2017, published 2020).
Read-outs that look alike come from different tables or passages of the source.

Experiments:
[1] = humans; cited from earlier work
TCTP = target: T1, TCTP (Homo sapiens, UniProt P13693); conditions: prior art section; read-out: affinity for TCTP, Kd; cited from earlier work
T1 sequence (P13693 1-172): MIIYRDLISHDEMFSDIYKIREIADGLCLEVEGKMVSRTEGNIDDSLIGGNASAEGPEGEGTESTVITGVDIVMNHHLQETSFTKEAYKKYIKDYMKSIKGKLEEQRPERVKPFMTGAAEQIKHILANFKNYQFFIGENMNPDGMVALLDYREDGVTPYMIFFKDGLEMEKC

human HCT116 cells = assay: Inhibition of cell growth, CellTiter Glo assay; conditions: for GI50: Homo sapiens
Experimental: The viability and proliferation of human HCT116 cells is measured using the “CellTiter Glo®” assay (Promega), which is a luminescent measure of the number of living cells. Sertraline and AC070 were tested at 10 concentrations and results are expressed as GI50, TGI, LC50 and IC50 relative to control cells (DMSO).
The CellTiter-Glo® assay is a homogeneous method for determining the number of viable cells in culture based on a quantification of the ATP present, an indicator of metabolically active cells. The homogeneous test procedure involves the addition of a single reagent (the CellTiter-Glo® reagent) directly to the cultured cells in serum-enriched medium.
The results of the test are reported in the following Tables 2 and 3 (Table 2: sertraline and Table 3: AC070): […]

p53 protein = assay: Overexpression of p53 protein, Western blot; assay type: cell-based; conditions: 10 μM
Experimental: The compound AC014 is capable of inducing overexpression of p53 (FIG. 1).
The Western blot was carried out according to the protocol described in the following article: Amson R, Pece S, Lespagnol A, Vyas R, Mazzarol G, Tosoni D, Colaluca I, Viale G, Rodrigues-Ferreira S, Wynendaele J, Chaloin O, Hoebeke J, Marine J C, Di Fiore P P, Telerman A. Nat Med. 2011 Dec. 11; 18(1):91-9.
The following antibodies were used in the Western blot assay: anti-TCTP antibodies were generated against the whole human-derived TCTP. These polyclonal antibodies were purified by affinity column affinity coupled to TCTP (Agro-Bio). Anti-P53 1C12 mouse antibody (Cell Signaling Technology) was used at a dilution of 1/1000.
Secondary antibodies (antirabbit and antimouse) conjugated to HRP were used at a dilution of 1/5000 to visualize the signals by Western blots.

In the case of CN[C@H]1CC[C@@H](c2ccc(Cl)c(Cl)c2)c2ccccc21 [sertraline, reference compound], the “maximum tolerated dose (MTD)” value [1] is given as 400 mg/day, the Kd (TCTP) is given as 198 µM and the TGI50 1 (human HCT116 cells; HCT116, CellTiter Glo, determination 1) is given as 0.203 µM. The TGI50 2 (human HCT116 cells; HCT116, CellTiter Glo, determination 2) was 0.229 µM, the TGI50 3 (human HCT116 cells; HCT116, CellTiter Glo, determination 3) was 0.253 µM and the TGI50 Mean (human HCT116 cells; HCT116, CellTiter Glo, mean) was 0.228 µM. For the same compound, the TGI50 Median (human HCT116 cells; HCT116, CellTiter Glo, median) was 0.227 µM, the GI50 (human HCT116 cells; HCT-116, read-out: GI50 1) was 0.125 µM and the GI50 (human HCT116 cells; HCT-116, read-out: GI50 2) was 0.141 µM. The GI50 (human HCT116 cells; HCT-116, read-out: GI50 3) was 0.159 µM, the GI50 (human HCT116 cells; HCT-116, read-out: GI50 Mean) was 0.142 µM and the GI50 (human HCT116 cells; HCT-116, read-out: GI50 Median) was 0.14 µM. The GI50 (human HCT116 cells; HCT-116, read-out: cell growth inhibition constant GI50) was 0.141 µM and the “expression of the p53 protein” value (p53 protein) was “induced”.
